Results on 68 compounds are retold here after PubChem BioAssay AID651745 (NMMLSC, 2012).

Active and inactive are the calls of the source.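 Rule for the calls: active = GFP positive cell share at least 15% at top dose plus 60%-effect dose below 60 µM; inactive = the rest.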

The test system of the first assay is ER-HoxA9 myeloid progenitors, lysozyme-GFP differentiation, flow cytometry. The experiment in a line: promoters of myeloid differentiation, HoxA9-arrested cells, dose response, cell-based, lysozyme-GFP, flow cytometry, Cherry Pick01 (AID 651745).
Conditions: not given
On the technique in general: A flow cytometer gives signals particle by particle.
Take `CC(=O)Nc1ccc(C2=CC(=O)C[C@H](c3ccc(Cl)cc3)C2)cc1`: the EC50 (in general, the concentration needed to bring the measured effect to its halfway point) is 24.7 µM.
The same measure, in the same setting: then `Cc1ccc(Nc2nc(=O)c3cccnc3s2)c(Br)c1`, with 4.47 µM.
Same read-out and setting: then `O=C(O)c1cccnc1Nc1ccc(Cl)cc1`, with 5.88 µM.
Regarding `CCCCn1c(N)c(N(CC(C)C)C(=O)Cc2ccc(S(=O)(=O)N3CCOCC3)s2)c(=O)[nH]c1=O`, the EC50 was 20.2 µM.
Same read-out and setting: then `Cn1ccc2c(-c3ccc(C(C)(C)C)cc3)cc3c(c21)C1CCC3O1` (stereo not drawn), with 5.62 µM.
Same read-out and setting: then `CCC(C)Sc1ccc(-c2nc3cc(C)ccn3c2NC2CCCCC2)cc1` (stereo not drawn), with 21.3 µM; and `C/C(=C1/SC(N2CCCC2)=NC1=O)c1ccc(Br)cc1`, with 2.08 µM.
Take `Cc1cccn2cc(COc3ccc(-c4ccccc4)cc3)nc12`: the concentration giving a half-maximal response (EC50) was 2.24 µM.
The same measure, in the same setting: to `COc1ccccc1C1N(c2ccc(Cl)cc2)C(=O)C2CCCN21` (stereo not drawn) belongs 6.47 µM; to `N#C/C(=C\N1CCN(Cc2ccc3c(c2)OCO3)CC1)c1nc2ccccc2s1`, 6.5 µM; to `O=C(O)c1ccccc1Nc1ccc([N+](=O)[O-])cc1`, 6.05 µM.
As to `O[C@H]1C[C@H](c2ccc(Cl)cc2)N(Cc2cccs2)C[C@@H]1n1cc(C2CC2)nn1`, the 50% effective concentration (EC50) is 4.9 µM.
As to `Cc1cc(NC(=O)COC(=O)c2c(C)nn(Cc3ccccc3)c2Cl)no1`, the EC50 was 4.44 µM.
Same read-out and setting: then `COC(=O)c1cc2c(=O)c3ccccc3oc2nc1/C=C/N(C)C`, with 6.88 µM; and `O=C(CCNC(=O)c1ccc(Br)cc1)NC1CCCc2ccccc21` (stereo not drawn), with 5.32 µM.

Test system in the next assay: not listed separately
Described as above. The conditions noted are these: ER-HoxA9 myeloid progenitors, lysozyme-GFP differentiation, flow cytometry; at 2.19 µM (top of the series).
Turning to `Cn1c(=O)c2cc(NC(=O)NCc3ccc(F)cc3)ccc2n1C/C=C/c1ccccc1`, the percent GFP positive (differentiation) is 1.7% (inactive).

The same assay, now with this note: ER-HoxA9 myeloid progenitors, lysozyme-GFP differentiation, flow cytometry; at 4.37 µM (top of the series).
On to `O=C(NCc1ccccc1)C1=C[C@@H](c2csc3ccccc23)C[C@@H](OCc2ccc(CO)cc2)O1`, for which the percent GFP positive (differentiation) was 1.2% (inactive).
On the same count and under the same terms, then `Clc1ccc(Cn2ncc3c(N4CCN(c5ccccc5)CC4)ncnc32)cc1`, with 1.8% (inactive); and `Cc1nn(-c2ccccc2)c(N2CCCC2)c1/C=N/NC(=S)Nc1ccccc1F`, with 2.2% (inactive).

Still in this assay, the particulars now being: ER-HoxA9 myeloid progenitors, lysozyme-GFP differentiation, flow cytometry; at 6.6 µM (top of the series).
On to `Brc1ccc(-c2csc3[n+]2CCCCC3)cc1`, for which the percent GFP positive (differentiation) is 9.9% (inactive).
`CCOC(=O)c1c(NC(=O)C(C)OC(=O)c2ccc(NC(=O)CC#N)cc2)sc2c1CCCC2` (stereo not drawn): the percent GFP positive (differentiation) is 1.6% (inactive).
On the same count and under the same terms, to `c1cc(SC2CCCCC2)cc(-c2nc3cnccn3c2NC2CCCCC2)c1` belongs 4.8% (inactive); to `COc1ccc(NC2=C(NC(C)=O)C(=O)c3ccccc3C2=O)cc1`, 20.3% (inactive); to `Cn1cc(-c2cnc3c(NC=O)cc(-c4cccc(C(F)(F)F)c4)cn23)cn1`, 2.3% (inactive).

Staying with this assay, now noted: ER-HoxA9 myeloid progenitors, lysozyme-GFP differentiation, flow cytometry; at 13.2 µM (top of the series).
Consider `C=CCN(c1ccccc1OC)S(=O)(=O)c1ccc(Cl)c(C(=O)NCc2ccco2)c1`, for which the percent GFP positive (differentiation) was 2.5% (inactive).
Same read-out and setting: to `COC(=O)C1=C(c2cc3ccccc3s2)C[C@@H]2CC[C@H]1N2C(=O)NC1CCCCC1` belongs 4.3% (inactive); to `CCCc1nc2c3ccccc3ccn2c1Cc1ccc(OC)cc1C`, 2.2% (inactive); to `COc1ccc(/C=C/C(O)=C2/C(=O)N(C)C3(C)CC2c2ccccc2O3)cc1` (stereo not drawn), 5.7% (inactive).
In the case of `CCCCOc1ccc(OC(=O)Nc2cc(Cl)ccc2OC)cc1`, the percent GFP positive (differentiation) is 2.55% (inactive).
Regarding `CCC1(c2ccc(F)cc2)NC(=O)N(CC(=O)N2CCN(S(=O)(=O)c3ccc(C)cc3C)CC2)C1=O` (stereo not drawn), the percent GFP positive (differentiation) is 1.95% (inactive).
Same read-out and setting: to `CCCN1CCc2c(sc(NC(=O)c3ccc(S(=O)(=O)N(C)c4ccccc4)cc3)c2C(=O)NC)C1` belongs 89.5% (inactive); to `C[n+]1c(/C=C/c2ccc3c(c2)OCO3)ccc2ccccc21`, 3.3% (inactive); to `CCOC(=O)c1c(NC(=O)C(C)Sc2cccc[n+]2[O-])sc2c1CCN(Cc1ccccc1)C2` (stereo not drawn), 1.7% (inactive).
The same measure, in the same setting: to `CN(Cc1ccc(Cl)c(Cl)c1)C(=O)C1=CC=CN2CCS(=O)(=O)N=C12` belongs 6.5% (inactive); to `O=CNc1ccc2c3c(cccc13)-c1ccccc1-2`, 1.9% (inactive).
As for `CNC(=O)c1c(NC(=O)c2ccc(S(=O)(=O)N3CCCc4ccccc43)cc2)sc2c1CCN(C)C2`, the percent GFP positive (differentiation) is 4.8% (inactive).
Still for that read-out and setting: to `Nc1ccc(C#Cc2ccc3c(=O)c4ccccc4oc3c2)cc1` belongs 15.2% (inactive).

The assay is the same for the next values; noted with them: ER-HoxA9 myeloid progenitors, lysozyme-GFP differentiation, flow cytometry; at 19.9 µM (top of the series).
For `COc1ccc(-n2c(C)cc(/C=C3\SC(=S)N(Cc4ccco4)C3=O)c2C)cc1`, the percent GFP positive (differentiation) was 7.7% (inactive).
Still for that read-out and setting: then `Cc1ccc(OCc2nnc(SCc3nc4ccccc4[nH]3)n2Cc2ccco2)cc1`, with 3.4% (inactive); and `O=c1[nH][nH]cc1C=Nc1ccccc1O`, with 2.8% (inactive); and `Cc1cccn2c(=O)c(/C=C3\SC(=S)NC3=O)c(NCCCN3CCOCC3)nc12`, with 33% (inactive).
On the same count and under the same terms, to `O=C(CCCN1C(=O)/C(=C/c2ccco2)SC1=S)Nc1cccc(C(=O)O)c1` belongs 7.4% (inactive); to `CCC(CO)n1c(SCc2cc(=O)oc3cc(C)ccc23)nc2ccccc2c1=O` (stereo not drawn), 2.7% (inactive); to `Cn1c(-c2ccccc2)c[n+]2c1-c1ccccc1C2`, 3.8% (inactive).
Same read-out and setting: to `COc1ccccc1NC(=O)c1cccc(S(=O)(=O)N2CCN(c3ccccc3)CC2)c1` belongs 4.3% (inactive).
In the case of `C/C(N)=C(/C#N)C(=O)COC(=O)c1cc(C)n(-c2ccc(F)cc2)c1C`, the percent GFP positive (differentiation) is 10.9% (inactive).
Same read-out and setting: then `CCOC(=O)C1=C(CN2CCc3ccccc32)NC(=O)NC1c1cccc([N+](=O)[O-])c1` (stereo not drawn), with 10.5% (inactive).

The assay is the same for the next values; noted with them: ER-HoxA9 myeloid progenitors, lysozyme-GFP differentiation, flow cytometry; at 39.8 µM (top of the series).
As for `O=[N+]([O-])c1ccc(C[n+]2cccc3c4ccccc4ccc32)cc1`, the percent GFP positive (differentiation) is 3.1% (inactive).
With `COc1ccc(/C=C/c2cccc[n+]2C)c(O)c1`, the percent GFP positive (differentiation) was 6.2% (inactive).
As to `COc1ccc(Cn2nnnc2CN2CCc3ccccc32)cc1`, the percent GFP positive (differentiation) was 1.9% (inactive).
Same read-out and setting: then `CCS(=O)(=O)c1nc(S(=O)(=O)c2ccc(Cl)cc2)c(N2CCC3(CC2)OCCO3)s1`, with 5.1% (inactive).
Still for that read-out and setting: then `COc1cccc(NC(=O)[C@H](Cc2c[nH]c3ccccc23)NC(=O)[C@@H]2Cc3ccccc3CN2)c1`, with 3.5% (inactive); and `COc1ccc(NC(=S)N2CCC3CC2c2c(Cl)cccc23)c(OC)c1` (stereo not drawn), with 0.6% (inactive); and `CC(=O)c1c(NC(=O)c2ccccc2)[nH]c(-c2ccccc2)nc1=S`, with 4% (inactive).
For the compound `Cc1c(N=C2NN=C(c3c[nH]c4ccccc34)CS2)c(=O)n(-c2ccccc2)n1C`, the percent GFP positive (differentiation) is 5.55% (inactive).
Still for that read-out and setting: to `COc1ccc(C)cc1NC(=O)n1ncc2cc(Cl)ccc21` belongs 2.5% (inactive); to `Cc1cccc(N2CCN(C(=O)c3ccc4c(c3)OCCO4)CC2)c1C`, 2.1% (inactive); to `COc1ccc2ccccc2c1CNC(=O)CC1C(=O)NCCN1CC(C)C` (stereo not drawn), 7% (inactive).
Same read-out and setting: to `CCCCN1C(N)=NC[C@@H]1Cc1ccc(O)cc1` belongs 3.4% (inactive).
On the same count and under the same terms, then `Cc1ccc(-c2nn3c(C)nnc3s2)cc1NC(=O)CSc1ccc(Cl)cc1`, with 0.9% (inactive).
For `CCOC(=O)c1c(NC(=O)c2nn(CC)cc2Br)c(C#N)cn1-c1ccccc1`, the percent GFP positive (differentiation) was 0.4% (inactive).
Still for that read-out and setting: then `O=C(O)c1ccccc1N/N=C/c1c(Sc2nnnn2-c2ccccc2)nc2ccccn2c1=O`, with 97.5% (inactive).
On the same count and under the same terms, then `N#CC(C#N)=c1ccc2c(c1)N1C(c3ccccc3)=CC(c3ccccc3)C3CCCCC31N=2` (stereo not drawn), with 1% (inactive); and `C#CC[N+](CC)(CC)CC#Cc1ccccc1`, with 4.1% (inactive).
With `CCOc1ccccc1Nc1nc2ccc(C)cc2n2cnnc12`, the percent GFP positive (differentiation) was 1.4% (inactive).
On the same count and under the same terms, then `COc1ccccc1CN(Cc1nc2ccccc2c(=O)[nH]1)C(=O)Nc1ccc(C)cc1`, with 1.4% (inactive); and `C[n+]1ccccc1/C=C/c1ccc2ncccc2c1`, with 4.4% (inactive); and `CC(=O)c1c(N2CCOCC2)[nH]c(-c2ccccc2)nc1=S`, with 5.35% (inactive).
